The source made the active and inactive calls. How the calls were made is not given here.
biological target: Sphingosine 1-phosphate receptor 2 (Homo sapiens) (UniProt O95136); experiment: antagonism at human S1PR2 – cell-based, FRET, dose response, counter-screen for S1PR3 antagonist project, late-stage follow-up (AID 743428); conditions: S1P2-expressing cells, FRET reporter, antagonist counterscreen
Sequence (O95136 whole entry, looked up): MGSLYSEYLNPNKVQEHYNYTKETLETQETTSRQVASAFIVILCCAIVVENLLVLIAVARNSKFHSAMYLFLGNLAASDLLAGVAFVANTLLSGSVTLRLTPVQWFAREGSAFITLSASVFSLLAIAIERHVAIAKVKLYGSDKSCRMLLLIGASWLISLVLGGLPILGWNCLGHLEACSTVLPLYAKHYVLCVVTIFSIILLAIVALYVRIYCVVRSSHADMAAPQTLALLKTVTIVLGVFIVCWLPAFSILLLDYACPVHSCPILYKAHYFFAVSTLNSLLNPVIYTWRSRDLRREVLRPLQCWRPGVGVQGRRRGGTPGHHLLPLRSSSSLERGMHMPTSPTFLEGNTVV

SMILES | IC50
O=C(NC(c1ccccc1)c1nc(-c2ccccc2)no1)c1cccc(Cl)n1 (configuration not stated) | > 50 µM (inactive)
COc1ccc(C(=O)NC(c2ccccc2)c2nc(-c3ccccc3)no2)cc1 (configuration not stated) | > 50 µM (inactive)
O=C(NC(c1ccccc1)c1nc(-c2ccccc2)no1)c1cccc(Br)c1 (configuration not stated) | > 50 µM (inactive)
O=C(NC(c1ccc(Cl)c(Cl)c1)c1nc(-c2ccccc2)no1)c1cccc(Cl)c1 (configuration not stated) | > 50 µM (inactive)
O=C(NC(c1ccc(Cl)cc1)c1nc(-c2ccccc2)no1)c1ccc(Cl)c(Cl)c1 (configuration not stated) | > 50 µM (inactive)
O=C(NC(c1nc(-c2ccccc2)no1)C1CCCCC1)c1ccc(Cl)c(Cl)c1 (configuration not stated) | > 50 µM (inactive)
Cc1ccc(C(=O)NC(c2ccccc2)c2nc(-c3ccccc3)no2)cc1 (configuration not stated) | > 50 µM (inactive)
O=C(NC(Cc1ccccc1)c1nc(-c2ccccc2)no1)c1cccc(Cl)c1 (configuration not stated) | inactive
O=C(NC(c1cccc(Cl)c1)c1nc(-c2ccccc2)no1)c1ccc(Cl)c(Cl)c1 (configuration not stated) | > 50 µM (inactive)
O=C(NC(c1ccc(Cl)cc1)c1nc(-c2ccccc2)no1)c1ccc(Cl)c(Br)c1 (configuration not stated) | > 50 µM (inactive)
Cc1ccc(C(NC(=O)c2cccc(Cl)c2)c2nc(-c3ccccc3)no2)cc1 (configuration not stated) | > 50 µM (inactive)
O=C(NC(c1ccc(Cl)cc1)c1nc(-c2ccccn2)no1)c1cccc(Cl)c1 (configuration not stated) | > 50 µM (inactive)
O=C(NC(c1ccc(Cl)cc1)c1nc(-c2ccccc2)no1)c1cccc(Br)c1 (configuration not stated) | > 50 µM (inactive)
O=C(NC(c1ccc(Br)cc1)c1nc(-c2ccccc2)no1)c1ccc(Cl)c(Cl)c1 (configuration not stated) | > 50 µM (inactive)
O=C(NC(c1ccc(Cl)c(Cl)c1)c1nc(-c2ccccc2)no1)c1ccc(Cl)c(Cl)c1 (configuration not stated) | > 50 µM (inactive)
N#Cc1ccc(C(=O)NC(c2ccc(Cl)c(Cl)c2)c2nc(-c3ccccc3)no2)cc1 (configuration not stated) | > 50 µM (inactive)
O=C(NC(c1ccc(Cl)cc1)c1nc(-c2cccc(Cl)c2)no1)c1cccc(Cl)c1 (configuration not stated) | > 50 µM (inactive)
O=C(NC(c1ccccc1)c1nc(-c2ccccc2)no1)c1ccc(Cl)cc1 (configuration not stated) | > 50 µM (inactive)
O=C(NC(c1ccccc1)c1nc(-c2ccccc2)no1)c1cccc(Cl)c1 (configuration not stated) | > 50 µM (inactive)
O=C(NC(c1cccc(Cl)c1)c1nc(-c2ccccc2)no1)c1cccc(Cl)c1 (configuration not stated) | > 50 µM (inactive)
O=C(NC(c1ccc(Cl)cc1)c1nc(-c2ccccc2)no1)c1cccc(Cl)c1 (configuration not stated) | > 50 µM (inactive)
O=C(NC(c1ccc(Cl)c(Cl)c1)c1nc(-c2ccccc2)no1)c1ccccc1 (configuration not stated) | > 50 µM (inactive)
O=C(NC(c1ccc(Cl)c(Cl)c1)c1nc(-c2ccccc2)no1)c1ccc(Cl)cc1 (configuration not stated) | > 50 µM (inactive)
CCc1ccc(C(NC(=O)c2cccc(Cl)c2)c2nc(-c3ccccc3)no2)cc1 (configuration not stated) | > 50 µM (inactive)
O=C(c1cccc(Cl)c1)N(CCO)C(c1ccc(Cl)c(Cl)c1)c1nc(-c2ccccc2)no1 (configuration not stated) | inactive
O=C(NC(c1nc(-c2ccccc2)no1)C1CCOCC1)c1ccc(Cl)c(Cl)c1 (configuration not stated) | > 50 µM (inactive)
O=C(NC(c1cccc(Cl)c1)c1nc(-c2ccccc2)no1)c1cc(Cl)cc(Cl)c1 (configuration not stated) | > 50 µM (inactive)
